Measured values from ChEMBL document CHEMBL5620353, “Novel antifungal triazoles with alkynyl-methoxyl side chains: Design, synthesis, and biological activity evaluation” (Eur J Med Chem, 2023).
Converted amounts (≈) assume the structure as drawn.

Experiments:
Type in all cases: functional
Candida parapsilosis = assay: Antifungal activity against Candida parapsilosis 22019 assessed as inhibition of fungal growth incubated for 48 hrs by microbroth dilution method; conditions: Lodderomyces parapsilosis
Candida albicans [1] = assay: Antifungal activity against Candida albicans 10231 assessed as inhibition of fungal growth incubated for 48 hrs by microbroth dilution method
Nakaseomyces glabratus [2] = assay: Potency index, ratio of fluconazole MIC to test compound MIC for antifungal activity against Candida glabrata 537 assessed as inhibition of fungal growth incubated for 48 hrs by microbroth dilution method
Nakaseomyces glabratus [3] = assay: Antifungal activity against Candida glabrata 537 assessed as inhibition of fungal growth incubated for 48 hrs by microbroth dilution method
Candida tropicalis = assay: Antifungal activity against Candida tropicalis 8915 assessed as inhibition of fungal growth incubated for 48 hrs by microbroth dilution method
Candida albicans [4] = assay: Antifungal activity against Candida albicans SC5314 assessed as inhibition of fungal growth incubated for 48 hrs by microbroth dilution method
Pichia kudriavzevii = assay: Antifungal activity against Candida krusei 4996 assessed as inhibition of fungal growth incubated for 48 hrs by microbroth dilution method
Aspergillus fumigatus = assay: Antifungal activity against Aspergillus fumigatus 7544 assessed as inhibition of fungal growth incubated for 72 hrs by microbroth dilution method
Cryptococcus neoformans = assay: Antifungal activity against Cryptococcus neoformans 32,609 assessed as inhibition of fungal growth incubated for 72 hrs by microbroth dilution method
[Candida] auris [5] = Antifungal activity against fluconazole-resistant Candida auris 891 assessed as inhibition of fungal growth incubated for 48 hrs by microbroth dilution method; conditions: Candidozyma auris
[Candida] auris [6] = Antifungal activity against fluconazole-resistant Candida auris 919 assessed as inhibition of fungal growth incubated for 48 hrs by microbroth dilution method; conditions: Candidozyma auris
[Candida] auris [7] = Antifungal activity against fluconazole-resistant Candida auris 918 assessed as inhibition of fungal growth incubated for 48 hrs by microbroth dilution method; conditions: Candidozyma auris
Candida albicans [8] = assay: Antifungal activity against fluconazole-resistant Candida albicans 904 assessed as inhibition of fungal growth incubated for 48 hrs by microbroth dilution method
Candida albicans [9] = assay: Antifungal activity against fluconazole-resistant Candida albicans 901 assessed as inhibition of fungal growth incubated for 48 hrs by microbroth dilution method
Saccharomyces cerevisiae [10] = assay: Antifungal activity against recombinant Saccharomyces cerevisiae Y2459 overexpressing CaErg11 CaCpr assessed as inhibition of fungal growth incubated for 48 hrs by microbroth dilution method
Saccharomyces cerevisiae [11] = assay: Antifungal activity against recombinant Saccharomyces cerevisiae Y2374 overexpressing CgErg11 assessed as inhibition of fungal growth incubated for 48 hrs by microbroth dilution method
Saccharomyces cerevisiae [12] = assay: Antifungal activity against recombinant Saccharomyces cerevisiae Y2513 overexpressing ScErg11 Y140H assessed as inhibition of fungal growth incubated for 48 hrs by microbroth dilution method
Saccharomyces cerevisiae [13] = assay: Antifungal activity against recombinant Saccharomyces cerevisiae Y2721 overexpressing CpErg11 CpCpr assessed as inhibition of fungal growth incubated for 48 hrs by microbroth dilution method
Saccharomyces cerevisiae [14] = assay: Antifungal activity against recombinant Saccharomyces cerevisiae Y2301 overexpressing ScErg11 Y140F assessed as inhibition of fungal growth incubated for 48 hrs by microbroth dilution method
Saccharomyces cerevisiae [15] = assay: Antifungal activity against recombinant Saccharomyces cerevisiae Y2411 overexpressing ScErg11 assessed as inhibition of fungal growth incubated for 48 hrs by microbroth dilution method
Saccharomyces cerevisiae [16] = assay: Antifungal activity against recombinant Saccharomyces cerevisiae Y2716 overexpressing CpErg11 Y132F CpCpr assessed as inhibition of fungal growth incubated for 48 hrs by microbroth dilution method
Saccharomyces cerevisiae [17] = assay: Antifungal activity against recombinant Saccharomyces cerevisiae Y2300 overexpressing ScErg11 assessed as inhibition of fungal growth incubated for 48 hrs by microbroth dilution method
Saccharomyces cerevisiae [18] = assay: Antifungal activity against recombinant Saccharomyces cerevisiae Y570 overexpressing CaCdr1 assessed as inhibition of fungal growth incubated for 48 hrs by microbroth dilution method
Saccharomyces cerevisiae [19] = assay: Antifungal activity against recombinant Saccharomyces cerevisiae Y2462 overexpressing ScErg11 ScNcp1 assessed as inhibition of fungal growth incubated for 48 hrs by microbroth dilution method
Saccharomyces cerevisiae [20] = assay: Antifungal activity against recombinant Saccharomyces cerevisiae Y525 overexpressing CaMdr1 assessed as inhibition of fungal growth incubated for 48 hrs by microbroth dilution method

Row | SMILES | MIC (Candida parapsilosis) [µg/mL] | MIC (Candida albicans [1]) [µg/mL] | Ratio (Nakaseomyces glabratus [2]) | MIC (Nakaseomyces glabratus [3]) [µg/mL] | MIC (Candida tropicalis) [µg/mL] | MIC (Candida albicans [4]) [µg/mL] | MIC (Pichia kudriavzevii) [µg/mL] | MIC (Aspergillus fumigatus) [µg/mL] | MIC (Cryptococcus neoformans) [µg/mL] | further results
1 | C[C@@H](OCC#Cc1c(F)cc(F)cc1F)[C@](O)(Cn1cncn1)c1ccc(F)cc1F | 2 (≈ 4.57 µM) | > 64 | >=8 | ≤ 0.125 | 64 (≈ 146 µM) | ≤ 0.125 | 8 (≈ 18.3 µM) | 4 (≈ 9.15 µM) | 0.5 (≈ 1.14 µM) | 
2 | C[C@@H](OCC#Cc1ccc(Cl)cc1)[C@](O)(Cn1cncn1)c1ccc(F)cc1F | 0.5 (≈ 1.2 µM) | 16 (≈ 38.3 µM) | >=8 | ≤ 0.125 | ≤ 0.125 | ≤ 0.125 | 16 (≈ 38.3 µM) | 4 (≈ 9.57 µM) | 1 (≈ 2.39 µM) | MIC ([Candida] auris [5]): 4 µg/mL (≈ 9.57 µM); MIC ([Candida] auris [6]): 8 µg/mL (≈ 19.1 µM); MIC ([Candida] auris [7]): 16 µg/mL (≈ 38.3 µM); MIC (Candida albicans [8]): 32 µg/mL (≈ 76.6 µM); MIC (Candida albicans [9]): 32 µg/mL (≈ 76.6 µM)
3 | Cc1cccc(C#CCO[C@H](C)[C@](O)(Cn2cncn2)c2ccc(F)cc2F)c1 | 0.5 (≈ 1.26 µM) | 8 (≈ 20.1 µM) |  | 0.25 (≈ 0.629 µM) | 64 (≈ 161 µM) | 0.5 (≈ 1.26 µM) | 32 (≈ 80.5 µM) | 1 (≈ 2.52 µM) | 4 (≈ 10.1 µM) | 
4 | C[C@@H](OCC#Cc1ccc(F)cc1)[C@](O)(Cn1cncn1)c1ccc(F)cc1F | 1 (≈ 2.49 µM) | 8 (≈ 19.9 µM) | >=8 | ≤ 0.125 | 64 (≈ 159 µM) | ≤ 0.125 | 8 (≈ 19.9 µM) | 1 (≈ 2.49 µM) | 0.5 (≈ 1.25 µM) | MIC ([Candida] auris [5]): 16 µg/mL (≈ 39.9 µM); MIC ([Candida] auris [6]): 16 µg/mL (≈ 39.9 µM); MIC ([Candida] auris [7]): 16 µg/mL (≈ 39.9 µM); MIC (Candida albicans [8]): 32 µg/mL (≈ 79.7 µM); MIC (Candida albicans [9]): 64 µg/mL (≈ 159 µM)
5 | C[C@@H](OCC#Cc1c(Cl)cccc1Cl)[C@](O)(Cn1cncn1)c1ccc(F)cc1F | 4 (≈ 8.84 µM) | > 64 |  | 0.25 (≈ 0.553 µM) | > 64 | 0.25 (≈ 0.553 µM) | 16 (≈ 35.4 µM) | 4 (≈ 8.84 µM) | ≤ 0.125 | 
6 | C[C@@H](OCC#Cc1cccc(Cl)c1Cl)[C@](O)(Cn1cncn1)c1ccc(F)cc1F | 8 (≈ 17.7 µM) | 32 (≈ 70.8 µM) |  | 1 (≈ 2.21 µM) | 32 (≈ 70.8 µM) | ≤ 0.125 | 64 (≈ 142 µM) | 4 (≈ 8.84 µM) | 4 (≈ 8.84 µM) | 
7 | CC(=O)N1CCN(c2ccc(OCC3COC(Cn4ccnc4)(c4ccc(Cl)cc4Cl)O3)cc2)CC1 (centres undefined) [KETOCONAZOLE] |  |  |  |  |  |  |  |  |  | MIC (Saccharomyces cerevisiae [10]): 0.5 µg/mL; MIC (Saccharomyces cerevisiae [11]): 1 µg/mL; MIC (Saccharomyces cerevisiae [12]): 1 µg/mL; MIC (Saccharomyces cerevisiae [13]): 0.5 µg/mL; MIC (Saccharomyces cerevisiae [14]): 2 µg/mL; MIC (Saccharomyces cerevisiae [15]): 0.5 µg/mL; MIC (Saccharomyces cerevisiae [16]): 2 µg/mL; MIC (Saccharomyces cerevisiae [17]): 2 µg/mL; MIC (Saccharomyces cerevisiae [18]): > 64 µg/mL; MIC (Saccharomyces cerevisiae [19]): 1 µg/mL; MIC (Saccharomyces cerevisiae [20]): 1 µg/mL
8 | COc1ccc(C#CCO[C@H](C)[C@](O)(Cn2cncn2)c2ccc(F)cc2F)cc1 | 4 (≈ 9.68 µM) | 16 (≈ 38.7 µM) |  | 0.25 (≈ 0.605 µM) | 16 (≈ 38.7 µM) | ≤ 0.125 | 32 (≈ 77.4 µM) | 4 (≈ 9.68 µM) | 2 (≈ 4.84 µM) | 
9 | C[C@@H](OCC#Cc1ccc(C(F)(F)F)cc1)[C@](O)(Cn1cncn1)c1ccc(F)cc1F | 16 (≈ 35.4 µM) | 32 (≈ 70.9 µM) |  | 1 (≈ 2.22 µM) | 64 (≈ 142 µM) | 4 (≈ 8.86 µM) | 64 (≈ 142 µM) | 16 (≈ 35.4 µM) | 8 (≈ 17.7 µM) | 
10 | C[C@@H](OCC#Cc1cccc(F)c1)[C@](O)(Cn1cncn1)c1ccc(F)cc1F | 1 (≈ 2.49 µM) | 16 (≈ 39.9 µM) | >=8 | ≤ 0.125 | 32 (≈ 79.7 µM) | ≤ 0.125 | 16 (≈ 39.9 µM) | 1 (≈ 2.49 µM) | 1 (≈ 2.49 µM) | 
11 | C[C@@H](OCC#Cc1cc(F)ccc1F)[C@](O)(Cn1cncn1)c1ccc(F)cc1F | 2 (≈ 4.77 µM) | 8 (≈ 19.1 µM) | >=8 | ≤ 0.125 | 8 (≈ 19.1 µM) | ≤ 0.125 | 8 (≈ 19.1 µM) | 2 (≈ 4.77 µM) | 1 (≈ 2.38 µM) | 
12 | C[C@@H](OCC#Cc1cccc(Cl)c1)[C@](O)(Cn1cncn1)c1ccc(F)cc1F | 2 (≈ 4.79 µM) | 32 (≈ 76.6 µM) |  | 0.5 (≈ 1.2 µM) | 32 (≈ 76.6 µM) | 0.5 (≈ 1.2 µM) | 32 (≈ 76.6 µM) | 2 (≈ 4.79 µM) | 2 (≈ 4.79 µM) | 
